Earlier results on 3 molecules are cited in patent US20150182574A1, “COMPOSITIONS AND METHODS FOR ENHANCING MOBILIZATION AND PROLIFERATION OF BLASTOMERE-LIKE STEM CELLS” (Stemtech International, Inc., priority 2012, published 2015).

For data set [1] the following is noted: temperature and pH dependent.
For the next data set, the system named is HSCs. The following applies: intravenous injection.
In another data set the test system is VSELs. The following applies: in vivo.

For the molecule `OC[C@H]1O[C@@H](Oc2c(O)cc(O)cc2C=Cc2ccc(O)cc2)[C@H](O)[C@@H](O)[C@@H]1O` [2,3,5,4′-tetrahydroxystilbene-2-O-β-d-glycoside], the “stability in aqueous solutions” value in data set [1] is given as “readily degrade in aqueous solutions”.

Consider Fucoidan, for which the “egress of HSCs from bone marrow into the peripheral blood stream” value with HSCs is “promote the egress of HSCs”.

B1: G-CSF: granulocyte colony-stimulating factor, mobilization agent (protein, UniProt P09919 31-207, looked up)
Granulocyte …: TPLGPASSLPQSFLLKCLEQVRKIQGDGAALQEKLVSECATYKLCHPEELVLLGHSLGIPWAPLSSCPSQALQLAGCLSQLHSGLFLYQGLLQALEGISPELGPTLDTLQLDVADFATTIWQQMEELGMAPALQPTQGAMPAFASAFQRRAGGVLVASHLQSFLEVSYRVLRHLAQP
In the case of B1, the “numbers of VSELs in peripheral blood” value in the data set with VSELs is given as “increase numbers of VSELs in peripheral blood”.
